The experiment addresses SREBP-2 (Homo sapiens (Human), UniProt Q12772). Description: In vitro assay SREBP-2: PathHunter U2OS SREBP-2 Nuclear Translocation Cell Line, U18666A-stimulated. To be noted: PathHunter U2OS SREBP-2 nuclear translocation cells, U18666A 10 μM, overnight (16 hours). The format is cell-based.
In turn, `COC(=O)N1CCN(C(=O)O[C@@H](C)[C@H]2CC[C@H]3[C@@H]4CC=C5C[C@@H](O)CC[C@]5(C)[C@H]4CC[C@]23C)CC1` [Example 466, 1-(1S)-1-[(1S,3aS,3bS,7S,9aR,9bS,11aS)-7-hydroxy-9a,11a-dimethyl-1H,2H,3H,3aH,3bH,4H,6H,7H,8H,9H,9aH,9bH,10H,11H,11aH-cyclopenta[a]phenanthren-1-yl]ethyl 4-methyl piperazine-1,4-dicarboxylate] gave an IC50 of 250 to 1000 nM. Take `C[C@H](CCC(=O)N1CC[C@H](CO)O1)[C@H]1CC[C@H]2[C@@H]3CC=C4C[C@@H](O)CC[C@]4(C)[C@H]3CC[C@]12C` [Example 43, (R)-4-((3S,8S,9S,10R,13R,14S,17R)-3-hydroxy-10,13-dimethyl-2,3,4,7,8,9,10,11,12,13,14,15,16,17-tetradecahydro-1H-cyclopenta[a]phenanthren-17-yl)-1-((R)-5-(hydroxymethyl)isoxazolidin-2-yl)pentan-1-one]: the IC50 is 250 to 1000 nM.

For `C[C@H](CCC(=O)N1CCC(O)(c2ccnnc2)CC1)[C@H]1CC[C@H]2[C@@H]3CC=C4C[C@@H](O)CC[C@]4(C)[C@H]3CC[C@]12C` [Example 343, (R)-4-((3S,8S,9S,10R,13R,14S,17R)-3-hydroxy-10,13-dimethyl-2,3,4,7,8,9,10,11,12,13,14,15,16,17-tetradecahydro-1H-cyclopenta[a]phenanthren-17-yl)-1-(4-hydroxy-4-(pyridazin-4-yl)piperidin-1-yl) pentan-1-one], the IC50 was 1000 to 10000 nM. In the case of `Cc1ccncc1O[C@@H](C)[C@H]1CC[C@H]2[C@@H]3CC=C4C[C@@H](O)CC[C@]4(C)[C@H]3CC[C@]12C` [Example 271, (3S,8S,9S,10R,13S,14S,17S)-10,13-dimethyl-17-((S)-1-((4-methylpyridin-3-yl)oxy)ethyl)-2,3,4,7,8,9,10,11,12,13,14,15,16,17-tetradecahydro-1H-cyclopenta[a]phenanthren-3-ol] it was 250 to 1000 nM; in that of `C[C@H](CCC(=O)N1CCC(N2CCOCC2=O)CC1)[C@H]1CC[C@H]2[C@@H]3CC=C4C[C@@H](O)CC[C@]4(C)[C@H]3CC[C@]12C` [Example 525, 4-(1-((R)-4-((3S,8S,9S,10R,13R,14S,17R)-3-hydroxy-10,13-dimethyl-2,3,4,7,8,9,10,11,12,13,14,15,16,17-tetradecahydro-1H-cyclopenta [a]phenanthren-17-yl)pentanoyl)piperidin-4-yl)morpholin-3-one], less than 250 nM; in that of `C[C@H](CC[C@](O)(C1CCC1)C(F)(F)F)[C@H]1CC[C@H]2[C@@H]3CC=C4C[C@@H](O)CC[C@]4(C)[C@H]3CC[C@]12C` [Example 25, (3S,8S,9S,10R,13R,14S,17R)-17-((2R,5S)-5-cyclobutyl-6,6,6-trifluoro-5-hydroxyhexan-2-yl)-10,13-dimethyl-2,3,4,7,8,9,10,11,12,13,14,15,16,17-tetradecahydro-1H-cyclopenta[a]phenanthren-3-ol], 250 to 1000 nM. With `C[C@H](CCC(=O)N(C)Cc1ccccn1)[C@H]1CC[C@H]2[C@@H]3CC=C4C[C@@H](O)CC[C@]4(C)[C@H]3CC[C@]12C` [Example 542, (4R)-4-[(1R,3aS,3bS,7S,9aR,9bS,11aR)-7-hydroxy-9a,11a-dimethyl-1H,2H,3H,3aH,3bH,4H,6H,7H,8H,9H,9aH,9bH,10H,11H,11aH-cyclopenta[a]phenanthren-1-yl]-N-methyl-N— [(pyridin-2-yl)methyl]pentanamide] the figure was 250 to 1000 nM; with `CNC(=O)NC[C@@H](C)[C@H]1CC[C@H]2[C@@H]3CC=C4C[C@@H](O)CC[C@]4(C)[C@H]3CC[C@]12C` [Example 239, 1-((S)-2-((3S,8S,9S,10R,13S,14S,17R)-3-hydroxy-10,13-dimethyl-2,3,4,7,8,9,10,11,12,13,14,15,16,17-tetradecahydro-1H-cyclopenta[a]phenanthren-17-yl)propyl)-3-methylurea], 250 to 1000 nM.

The compound `CC(=O)N1CCC2(C1)CN(C(=O)CC[C@@H](C)[C@H]1CC[C@H]3[C@@H]4CC=C5C[C@@H](O)CC[C@]5(C)[C@H]4CC[C@]13C)C2` [Example 327, (4R)-4-[(1R,3aS,3bS,7S,9aR,9bS,11aR)-7-hydroxy-9a,11a-dimethyl-1H,2H,3H,3aH,3bH,4H,6H,7H,8H,9H,9aH,9bH,10H,11H,11aH-cyclopenta[a]phenanthren-1-yl]-1-{6-acetyl-2,6-diazaspiro[3.4]octan-2-yl}pentan-1-one] gave an IC50 of 250 to 1000 nM.

`COc1cccnc1CC[C@@H](C)[C@H]1CC[C@H]2[C@@H]3CC=C4C[C@@H](O)CC[C@]4(C)[C@H]3CC[C@]12C` [Example 186, (1R,3aS,3bS,7S,9aR,9bS,11aR)-1-[(2R)-4-(3-methoxypyridin-2-yl)butan-2-yl]-9a,11a-dimethyl-1H,2H,3H,3aH,3bH,4H,6H,7H,8H,9H,9aH,9bH,10H,11H,11aH-cyclopenta[a]phenanthren-7-ol] showed an IC50 of less than 250 nM. Turning to `Cc1ccc(OC[C@@H](C)[C@H]2CC[C@H]3[C@@H]4CC=C5C[C@@H](O)CC[C@]5(C)[C@H]4CC[C@]23C)nc1` [Example 263, (3S,8S,9S,10R,13S,14S,17R)-10,13-dimethyl-17-((S)-1-((5-methylpyridin-2-yl)oxy)propan-2-yl)-2,3,4,7,8,9,10,11,12,13,14,15,16,17-tetradecahydro-1H-cyclopenta[a]phenanthren-3-ol], the 50% inhibitory concentration (IC50) lay in the range of 250 to 1000 nM. With `CC(C)C1(O)CCN(C(=O)CC[C@@H](C)[C@H]2CC[C@H]3[C@@H]4CC=C5C[C@@H](O)CC[C@]5(C)[C@H]4CC[C@]23C)CC1` [Example 149, (R)-4-((3S,8S,9S,10R,13R,14S,17R)-3-hydroxy-10,13-dimethyl-2,3,4,7,8,9,10,11,12,13,14,15,16,17-tetradecahydro-1H-cyclopenta[a]phenanthren-17-yl)-1-(4-hydroxy-4-isopropylpiperidin-1-yl) pentan-1-one] the figure was less than 250 nM; with `C[C@H](CCC(=O)N1CCC(C(NC(=O)C(C)(C)O)C(F)(F)F)CC1)[C@H]1CC[C@H]2[C@@H]3CC=C4C[C@@H](O)CC[C@]4(C)[C@H]3CC[C@]12C` (stereo partly drawn) [Example 479, 2-hydroxy-2-methyl-N-(2,2,2-trifluoro-1-(1-((R)-4-((3S,8S,9S,10R,13R,14S,17R)-3-hydroxy-10,13-dimethyl-2,3,4,7,8,9,10,11,12,13,14,15,16,17-tetradecahydro-1H-cyclopenta[a]phenanthren-17-yl)pentanoyl)piperidin-4-yl)ethyl)propanamide], less than 250 nM; with `CC(=O)NC1CN(C(=O)CC[C@@H](C)[C@H]2CC[C@H]3[C@@H]4CC=C5C[C@@H](O)CC[C@]5(C)[C@H]4CC[C@]23C)C1` [Example 326, N-{1-[(4R)-4-[(1R,3aS,3bS,7S,9aR,9bS,11aR)-7-hydroxy-9a,11a-dimethyl-1H,2H,3H,3aH,3bH,4H,6H,7H,8H,9H,9aH,9bH,10H,11H,11aH-cyclopenta[a]phenanthren-1-yl]pentanoyl]azetidin-3-yl}acetamide], 250 to 1000 nM.

What is called IC50 is the concentration that inhibits the measured activity by half.

Values taken from patent US20230340011A1 (Asteroid Therapeutics, priority 2022, published 2023).
